The source of these data is US9522928B2, “Mannosylated compounds useful for the prevention and the treatment of infectious diseases” (UNIVERSITE DE STRASBOURG, priority 2011, dated 2016).

Structures are written as SMILES. Entries after “also recorded” stand apart in the source; their conditions may differ.

One data set relates to HIV-1 (R5 strain). The data set is described as follows: HIV-1 cis-infection and replication in DCs (p24Gag ELISA). It is filed as cell-based. The conditions noted are these: 10 and 100 μM, p24Gag in supernatant. As to the method:
Human monocyte-derived dendritic cells (2×10^5; 300 μL) in RPMI 1640 medium containing 10% FBS were pre-treated with either anti-DC-SIGN antibodies (clone AZND1, Beckman-Coulter; 10 μg/mL) or compounds TriManC24 and TriManC24insat (10 and 100 μM) for 30 min at 37° C., before inoculation with HIV-1 (R5 strain; 100 ng of p24Gag). After 3 h, cells were pelleted and extensively washed to remove excess virus and compounds. On day 2, 4 and 7 after infection, cells were pelleted, an aliquot of the supernatant was removed and kept at −20° C., and half of the supernatant was replaced with fresh medium. Viral replication was monitored by measuring p24Gag levels in the culture supernatant by an enzyme-linked immunosorbent assay (ELISA, Innogenetics). […] As shown in the case of Dengue virus, the compounds of the invention may also interfere with HIV cis-infection. […] Discussion
A general note: An ELISA detects its analyte on a solid surface through an enzyme-linked reagent.

A short description of data set [1]: Hydrodynamic diameter of micelles (Zetasizer Nano ZS). It is filed as physicochemical. Particulars: in water at 0.5 mg/ml. The method, then: DiManinsatC24 was prepared according a procedure similar to that used for the preparation of TriDiManC24 except that: • pentacosanoic acid was replaced by 10,12-pentacosadiynoic acid, and • before the coupling with 10,12-pentacosadiynoic acid, the benzyl groups of compound 33 were replaced by acetyl group so as to provide compound 108 (as illustrated in FIG. 3E). ^1H NMR δ(ppm) (MeOD, 400 MHz) 4.87 (s, 3H), 4.73 (s, 3H), 3.64-3.50 (m, 14H), 3.46-3.20 (m, 76H), 2.97-2.93 (m, 6H), 2.33 (t, 6H, J=6.8 Hz), 2.09-1.96 (m, 6H), 1.08-1.05 (m, 32H), 0.66 (t, 3H, J=6.8 Hz). ^13C NMR δ (ppm) (MeOD, 100 MHz) 173.7, 168.8, 104.2, 101.2, 80.6, 80.4, 75.1, 74.7, 72.5, 72.2, 72.1, 71.9, 71.8, 71.7, 71.6, 71.4, 69.4, 69.1, 68.9, 68.7, 68.6, 68.0, 63.2, 63.1, 42.2, 37.0, 34.8, 33.7, 33.1, 30.8, 30.7, 30.6, 30.5, 30.4, 30.2, 29.5, 28.1, 27.0, 26.0, 23.7, 19.7, 14.4. IR (neat film, cm^−1): 3353, 2924, 1716, 1636, 1350, 1182, 1095, 1035, 1009, 837, 669. • Determination of critical micelle concentrations (CMCs) and size of particles. The hydrodynamic diameters of micelles of glycolipids were measured in water using a Zetasizer Nano ZS system (Malvern Instruments). The CMCs were measured using pyrene as an extrinsic fluorescent probe and were carried out as described (Perino et al., 2011). Briefly, a range of glycolipid samples were dissolved in water (1 ml), with concentrations ranging from 1.0 to 0.001 mg/ml. A stock solution of pyrene (1 mM) was prepared in dimethyl sulfoxyde and was added to each sample. Fluorescent emission of pyrene was measured at 25° C. using a Fluorolog spectrofluorometer (Jobin Yvon, Horiba). The intensities of fluorescence emission were determined at 374 nm (I374) and at 383 nm (I383), with an excitation at a 339 nm wavelength. The ratios I374/I383 were calculated and plotted against the glycolipid concentration. The CMC value was determined at the intersection of the two straight lines.

A further data set relates to Dengue virus 2 (DV2). The data set is described as follows: Dengue virus (DV2) cis-infection of human DCs. The format is cell-based. As to the method: Compounds of the invention (TriManC24, TriManinsatC24) were serially diluted in water. Human DCs (2.5×10^5 in 200 μl) in 48-well plates were pre-treated with different concentrations of compounds or culture medium alone, in RPMI 1640 medium […] for 30 min at 37° C. They were exposed to DV-2 at a multiplicity of infection of 1.0, for 2 h at 37° C. Cells were washed and cultured in complete RPMI medium (condition 1) or in complete medium containing the tested compounds (TriManC24, TriMannsatC24) (condition 2). After 48 h, supernatants were titered and cells were subjected to intracellular detection of viral antigens. DCs were fixed with 4% (v/v) paraformaldehyde and permeabilized with 0.1% (v/v) Triton X-100 for 3 min at room temperature. After washing, they were labeled with mouse anti-DV type 2 monoclonal antibody (3H5.1, Millipore) and stained with APC -conjugated rat anti-mouse IgG1. Fluorescence intensity of the cells was analyzed by flow cytometry (FACSCalibur, Becton Dickinson), using the Cell Quest Pro software.
There are four different dengue serotypes (1-4), and we have used DV type 2 (DV2) to further investigate the ability of the compounds of the invention (TriManC24 and TriManinsatC24) to inhibit the infection of human DCs. These cells were pre-treated with different concentrations of compounds or culture medium alone, for 30 min at 37° C. They were then exposed to DV2 for 2 hours at 37° C. Cells were washed to remove excess virions and compounds, and further cultured either in the absence (condition 1) or in the presence (condition 2) of the tested compounds. After 48 hours, cells were subjected to intracellular detection of viral antigens, and supernatants were titrated (not shown). […] FIG. 3A and FIG. 3B show the percentage of infected DCs when incubated with distinct concentrations of TriManinsatC24 in condition 1 and in condition 2, respectively. The histograms clearly show the protecting effects of TriManinsatC24, in particular in condition 2 wherein TriManinsatC24 at 10, 50 and 100 μM enabled the percentage of infected DCs to be reduced down to 40%, 20% and 2% respectively.

For `CCCCCCCCCCCCCCCCCCCCCCCCC(=O)NC(COCCC(=O)NCCOCCOCCOCCOC1OC(CO)C(O)C(O)C1O)(COCCC(=O)NCCOCCOCCOCCOC1OC(CO)C(O)C(O)C1O)COCCC(=O)NCCOCCOCCOCCOC1OC(CO)C(O)C(O)C1O` (stereo not drawn) [TriManC24], in the data set with HIV-1 (R5 strain), the “inhibition of HIV-1 cis-infection / replication in DCs (in words)” value was “decreases the amount of HIV R5 replication; also recorded: inhibit”. In addition, in data set [1], the “hydrodynamic diameter of micelles” value came out at 39 nm. Further, the “inhibition of Dengue virus infection of DCs (in words)” value with Dengue virus 2 (DV2) is on record as “able to inhibit the direct infection of DCs by Dengue virus”.
